Laboratory results reported in US10675244B2, “Microvesicles derived from nucleated, mammalian cells and use thereof” (MDIMUNE INC., priority 2009, dated 2020).

How the values were obtained:
[1] = White blood cell count in blood of treated mice; type: in vivo; conditions: 60 μg of doxorubicin daily
Protocol: Mice were anesthetized by abdominal injection of 150 μL of an anesthetic comprising a mixture of 1:3:6 ketamine:rumpon:PBS, and blood samples were taken from the heart and placed in tubes containing an anti-coagulant agent. A mixture of 10 μL of blood and 90 μL of 1% HCl was stored at room temperature for 7 min, and after 10 μL of the mixture was put into a hematocytometer, and white cells were counted.

[2] = 6 hours after tail vein injection; 100 μg microvesicles or 30 μg doxorubicin
Protocol: After cultivation for 10 days, PBS, PBS containing 100 μg of the extruded microvesicles (doxorubicin-microvesicle), or PBS containing 30 μg of doxorubicin was injected at a dose of 100 μl into mice via the tail vein.
Six hours after the injection, cancer tissue, the spleen and the heart were excised from the mice and fixed for 24 hours in 4% paraformaldehyde. For dehydration, the fixed tissues were immersed once in 70% ethanol, four times in 95% ethanol, three times in 100% ethanol, and three times in 100% xylene, each time for one hour in all cases. Thereafter, the tissues were embedded in paraffin, cut into sections 4 μm thick, and attached onto slide glass. The paraffin was melted by incubation at 60° C. for one hour. For hydration, the tissues were immersed three times in 100% xylene, four times in 100% ethanol, and three times in 95% ethanol, each time for one min in all cases, followed by storage for 5 min in flowing water.
After the hydration, the tissues were subjected to immunohistochemistry to examine whether doxorubicin was delivered to each tissue. In this regard, antigen retrieval was performed using a microwave method. The tissues were placed in 10 mM sodium citrate buffer and irradiated three times, each for five min, with microwaves. The tissues were cooled in flowing water and blocked for 2 hours with TBS containing 5% horse serum and 0.02% Triton X-100. […]

Mouse colon 26 cell line = test: Growth of colon 26 cancer tissue, comparison with doxorubicin (Example 21); type: in vivo, mice
Protocol: The mouse colon 26 cell line used in Example 18 was subcutaneously injected at a dose of 1×10^6 cells into mice and cultured for 5 days.
After cultivation for 5 days, PBS, PBS containing 10 μg of the extruded microvesicles loaded with 3 μg of doxorubicin (doxorubicin-microvesicle), or PBS containing 3, 15 or 60 μg of doxorubicin was injected at a dose of 100 μl once every day via the tail vein into mouse groups, each consisting of 5. The volume of cancer tissue was monitored once every two days. The tumor volume was calculated by the equation v=1s^2/2 wherein (1) is a length of the longest axis of a tumor and (s) is a length of the axis perpendicular to the longest axis.

COc1cccc2c1C(=O)c1c(O)c3c(c(O)c1C2=O)C[C@@](O)(C(=O)CO)C[C@@H]3O[C@H]1C[C@H](N)[C@H](O)[C@H](C)O1 [doxorubicin]
reduction of white blood cell count compared to the control [1]: at least 50% | doxorubicin delivered to the heart [2]: delivered in a large amount to the heart | doxorubicin in cancer blood vessels [2]: cannot by itself be delivered | equi-effective doxorubicin dose relative to the load of doxorubicin on the microvesicles (Mouse colon 26 cell line; 60 μg versus 3 μg load): 20 fold | dose of doxorubicin alone with the same therapeutic effect as the doxorubicin-loaded microvesicles (Mouse colon 26 cell line; daily tail vein injection, colon 26 tumor): 60 µg
